Measured values taken from patent publication US10047105B2, “Gyrase inhibitors” (Merck Sharp & Dohme Corp., priority 2009, dated 2018).
≈ marks a conversion by molar mass, not a printed value.

Columns and labels:
Type in all cases: cell-based
E. coli 8 ATCC 25922 = assay: MIC, E. coli 8 (wt); details: E. coli 8 (EC8)
S. pneumoniae ATCC 51916 = assay: MIC, S. pneumoniae; details: S. pneumoniae (Spn52); in µg/mL
S. aureus ATCC 13709 = assay: MIC, antibacterial potency, S. aureus; details: S. aureus (SA); in µg/mL

Row | SMILES | MIC EC8 (E. coli 8 ATCC 25922) [µg/mL] | MIC Spn52 (S. pneumoniae ATCC 51916) | MIC, SA (S. aureus ATCC 13709)
1 | CCc1[nH]c2nc(Oc3ccc4ccc[n+]([O-])c4c3)nc(Oc3ccc4ccc[n+]([O-])c4c3)c2c1Br [701,056] | > 64 | 8 | 4
2 | CCc1[nH]c2nc(Oc3ccc4c(c3)ncc[n+]4[O-])nc(Oc3ccc4c(c3)ncc[n+]4[O-])c2c1Cl [701,057] | > 64 | 32 | 8
3 | CCc1[nH]c2nc(Oc3ccc4c(c3)ncc[n+]4[O-])nc(Oc3ccc4c(c3)ncc[n+]4[O-])c2c1Br [701,058] | > 32 | <=0.5 | <=0.5
4 | CCc1[nH]c2nc(Oc3ccc4c(c3)ncc[n+]4[O-])nc(Oc3ccc4nccnc4c3)c2c1Br [701,059] | > 64 | <=0.5 | <=0.5
5 | CCc1[nH]c2nc(Oc3ccc4nccnc4c3)nc(Oc3ccc4c(c3)ncc[n+]4[O-])c2c1Br [701,060] | > 64 | <=0.5 | <=0.5
6 | CCc1[nH]c2nc(Oc3ccc4c(c3)ncc[n+]4[O-])nc(Oc3ccc4nccnc4c3)c2c1Cl [701,061] | > 32 | <=0.5 | <=0.5
7 | CCc1[nH]c2nc(Sc3ccc4[nH]cc(C(=O)OC)c4c3)nc(N3CC[C@@H](N)C3)c2c1Cl [701,062] | > 64 | 16 | 16
8 | NC1C2CN(c3nc(Sc4cnc5cccnc5c4)nc4[nH]c(C5CC5)c(Cl)c34)CC12 (stereo not drawn) [701,063] | 4 (≈ 8.89 µM) | 2 | 2
9 | N[C@@H]1CCN(c2nc(Sc3cnc4cccnc4c3)nc3[nH]c(C4CC4)c(Cl)c23)C1 [701,064] | 4 (≈ 9.13 µM) | 4 | 8
10 | NC1CN(c2nc(Sc3cnc4cccnc4c3)nc3[nH]c(C4CC4)c(Cl)c23)C1 [701,065] | 16 (≈ 37.7 µM) | 4 | 8
11 | CCc1[nH]c2nc(Sc3ccc4[nH]c(N)nc(=O)c4c3)nc(N3CC[C@@H](N)C3)c2c1Cl [701,066] | > 64 | >64 | 4
12 | CCc1[nH]c2nc(Oc3cc4ncn(C)c4[n+]([O-])c3)nc(Oc3cnc4c(c3)ncn4C)c2c1Cl [701,067] | > 64 | >64 | >64
13 | CCc1[nH]c2nc(Sc3ccc4cncnc4c3)nc(N3CC4C(N)C4C3)c2c1Cl (stereo not drawn) [701,069] | 8 (≈ 18.3 µM) | <=0.5 | <=0.5
14 | CCc1[nH]c2nc(Oc3ccc4cccnc4c3)nc(N3CC[C@@H](N)C3)c2c1Cl [701,070] | 64 (≈ 157 µM) | 8 | 4
15 | NC1CN(c2nc(Sc3cnc4ccc[n+]([O-])c4c3)nc3[nH]c(C4CC4)c(Cl)c23)C1 [701,074] | 8 (≈ 18.2 µM) | 4 | 8
16 | N[C@@H]1CCN(c2nc(Sc3cnc4ccc[n+]([O-])c4c3)nc3[nH]c(C4CC4)c(Cl)c23)C1 [701,075] | 8 (≈ 17.6 µM) | 8 | 8
17 | CCc1[nH]c2nc(SC)nc(N3CC[C@@H](N)C3)c2c1Cl [701,076] | > 64 | 64 | >64
18 | CCc1[nH]c2nc(SC)nc(N3CC[C@@H](N)C3)c2c1C#N [701,077] | > 64 | >64 | >64
19 | CCc1[nH]c2nc(Oc3cc(C#N)c(OC)c(OC)c3)nc(Oc3ccc4nccnc4c3)c2c1Br [701,081] | > 32 | <=0.5 | <=0.5
20 | CCc1[nH]c2nc(Sc3ccc4cc5c(nc4c3)CCOC5)nc(N3CC[C@@H](N)C3)c2c1Cl [701,082] | 4 (≈ 8.32 µM) | 16 | <=0.5
21 | CCc1[nH]c2nc(Sc3ccc4cc5c([n+]([O-])c4c3)CCOC5)nc(N3CC[C@@H](N)C3)c2c1Cl [701,083] | 16 (≈ 32.2 µM) | 1 | <=0.5
22 | CCc1[nH]c2nc(Sc3ccc4cc5c([n+]([O-])c4c3)CCOC5)nc(N3CC4C(N)C4C3)c2c1Cl (stereo not drawn) [701,084] | 8 (≈ 15.7 µM) | <=0.5 | <=0.5
23 | CCc1[nH]c2nc(Sc3ccc4nc(N)n[n+]([O-])c4c3)nc(N3CC[C@@H](N)C3)c2c1Cl [701,087] | > 64 | <=0.5 | <=0.5
24 | CCc1[nH]c2nc(Sc3cc(C#N)c4c(c3)c(=O)ccn4C)nc(N3CC[C@@H](N)C3)c2c1Cl [701,088] | 32 (≈ 66.7 µM) | 1 | 1
25 | CCc1[nH]c2nc(Sc3cnc(N4CCC4)c([N+](=O)[O-])c3)nc(N3CC[C@@H](N)C3)c2c1Cl [701,089] | > 64 | 4 | 2
26 | CCc1[nH]c2nc(Sc3ccc4[nH]nnc4c3)nc(N3CC[C@@H](N)C3)c2c1Cl [701,090] | > 64 | 8 | 8
27 | CCc1[nH]c2nc(Oc3ccc[n+]([O-])c3)nc(Oc3ccc4nccnc4c3)c2c1Br [701,091] | > 64 | <=0.5 | <=0.5
